# From US9730872B2, “Method for improving skin conditions with veratric acid or acceptable salt thereof as an active ingredient” (Bio Spectrum, Inc., priority 2012, dated 2017)
# Legend:
# [1] = tested on: transforming growth factor-beta1 (TGF-beta1); assay: Inhibition of TGF-beta1 production in hair follicle dermal papilla cells (ELISA); type: cell-based, Human; settings: 0, 10 and 100 μM, 48 hours; FIG. 3
# Protocol: (§1) Human hair follicle dermal papillar cells (Application, Inc., USA) were seeded into a 24-well micro plate at a density of 7.5×10^4 cells per well, and then were cultured in a 5% CO2 incubator at 37° C. for 24 hours. Then, the medium was replaced with serum-free medium, followed by being cultured for 16 hours. Then, each well was treated with 0, 10 and 100 μM of veratric acid, after which the cells were incubated for 48 hours. Then, the cell culture media were collected.
# The secretion rate of transforming growth factor-beta1 (TGF-beta1) was determined by measuring the amount of secretion rate of TGF-beta1 using Human LAP TFG-beta1 ELISA kit (ab100647, abcam, USA).
# [2] = tested on: hairless mice (Skh: HR-1); assay: Wrinkle prevention by oral administration in UV-irradiated hairless mice (skin replicas); type: in vivo; settings: 100 mg per kg oral, 5 weeks
# Protocol: In order to measure the wrinkle-preventing effect of veratric acid, 6-7-week-old hairless mice (Skh: HR-1) were divided into a control group, a UV group and a UV/veratric acid group, each consisting of 8 animals, and were bred during the test period. The control group and the UV group were administered orally with 0.5 ml of saline, and the UV/veratric acid group was administered orally with a solution of 100 mg per kg veratric acid in 0.5 ml of saline.
# The above-prepared samples were administered orally at the same point of time for 5 days a week for a total of 5 weeks. From 2 weeks to 5 weeks after oral administration, the UV group and the UV/veratric acid group were irradiated with UV light three times a week such that the total dose of UV radiation reached 600 mJ/cm^2.
# To measure the wrinkle-preventing effect of veratric acid, skin replicas were taken from the back of the hairless mice using a silicon polymer before autopsy. In the same manner, after 5 weeks, skin replicas were taken from the groups treated with each of the samples. Using the taken skin replicas, the antiaging effect, i.e., wrinkle-reducing effect of each sample was measured.
# collagenase (MMP-1) = assay: Inhibition of collagenase production in human normal fibroblasts (MMP-1 ELISA); type: cell-based; settings: 0, 1, 10 and 100 μM, 24 hours; FIG. 7
# Protocol: (§2) Human normal fibroblasts (Department of Dermatology, Ajou University) were seeded into a 24-well micro plate containing DMEM medium at a density of about 2×10^5 cells per well, and were then cultured in a 5% CO2 incubator at 37° C. for 24 hours. Then, the medium was removed from each well, and the cells were treated with 0, 1, 10 and 100 μM concentrations of veratric acid. Then, the cells were cultured for 24 hours, after which the cell culture media were collected, thereby preparing samples.
# The inhibition effects of collagenase production was determined by measuring the amount of collagenase using MMP-1 ELISA kit (QIA55, Merck, Germany).
# [3] = tested on: Human hair follicle dermal papillar cells; assay: Proliferation of human hair follicle dermal papilla cells (MTT); type: cell-based; settings: 0, 10 and 100 μM, 72 hours, FIG. 1
# Protocol: Human hair follicle dermal papillar cells (Application, Inc., USA) were seeded into a 6-well micro plate containing DMEM medium (Gibco, USA) with FBS at a density of 3×10^5 cells per well, and then were cultured in a 5% CO2 incubator at 37° C. for 24 hours. The next day, the cells were washed once with serum-free medium, and the medium was replaced with serum-free medium. Then, the cells were treated with 0, 10 and 100 μM of veratric acid, followed by incubating for 72 hours, after which the cells were washed once with serum-free medium, the medium was replaced with serum-free medium containing 10% MTT, and after 3 hours, the optical density (O.D.) value was measured and calculated as a percentage of control.
# [4] = tested on: procollagen type I C-peptide (PICP); assay: Collagen synthesis in human normal fibroblasts (PICP EIA); type: cell-based; settings: 0, 1, 10 and 100 μM, 24 hours; FIG. 4
# Protocol: as §2, with “were” for “were then”, “each well of the plate,” for “each well,”, “and each well was” for “and the cells were”, “veratric acid, after which” for “veratric acid. Then,”, “24 hours. Then,” for “24 hours, after which”, “cell medium was” for “cell culture media were”
# The amounts of collagen synthesis in the above-prepared samples was determined by measuring the amount of procollagen type I C-peptide (PICP) using a Procollagen Type I C-peptide EIA kit (MK101; Takara, Kyoto, Japan).
# Keratinocyte (HaCaT) = assay: UV-preventing effect, cell viability after UVB (MTT), keratinocytes; type: cell-based; settings: pretreated 0, 1, 10 and 100 μM 24 hours, UVB 20 mJ/cm^2, 48 hours; FIG. 6
# Protocol: (§3) Keratinocyte (HaCaT) and fibroblast were cultured in DMEM medium containing penicillin-streptomycin and serum. Then, the cells were seeded into a 12-well micro plate at density of about 1×10^5 cells per well, and were cultured in a 5% CO2 incubator at 37° C. until the cells attached about 80% over on well-area. Then, each well was pretreated with 0, 1, 10 and 100 μM of veratric acid, and after 24 hours, the medium was replaced with PBS, and then the cells were irradiated with UV (UVB 20 mJ/cm^2). Then, the UV-irradiated cells were replaced DMEM medium containing penicillin-streptomycin and serum, the cells were incubated for 48 hours. The cell viability was determined by measuring the viability of keratinocyte (HaCaT) and fibroblast using a MTT assay (30-1010K, ATCCTM).
# [5] = tested on: insulin-like growth factor-1 (IGF-1); assay: IGF-1 secretion of hair follicle dermal papilla cells (ELISA); type: cell-based, Human; settings: 0, 10 and 100 μM, 48 hours; FIG. 2
# Protocol: as §1, with “at” for “at a”
# The secretion rate of growth factor insulin-like growth factor-1 (IGF-1) was determined by measuring the amount of secretion rate of IGF-1 using Insulin-like growth factor-1 quantikine ELISA kit (DG100, R&D system, USA).
# fibroblast = assay: UV-preventing effect, cell viability after UVB (MTT), fibroblasts; type: cell-based; settings: pretreated 0, 1, 10 and 100 μM 24 hours, UVB 20 mJ/cm^2, 48 hours; FIG. 5
# Protocol: as §3
# human skin = assay: Wrinkle-reducing effect of nourishing cream, skin elasticity; type: in vivo; settings: face, twice a day, 3 months, scale 0 to 5
# Protocol: Specifically, an aqueous phase including purified water, triethanolamine, and propylene glycol was dissolved by heating to 70° C., and an oily phase including fatty acid, oily components, an emulsifier, and a preservative was dissolved by heating to 70° C. and added to the aqueous phase. Then, the resulting solution was cooled to 45° C., and veratric acid was added with in amounts of 0, 0.01, 0.05 and 1 wt % based on the total weight of the composition and was dispersed, followed by cooling to 30° C.
# In the measurement of skin elasticity, nourishing creams described in Preparation Example 8-1 was applied to the face of 30 healthy women of 21 to 42 years old twice a day for 3 months. The control group was used nourishing cream containing purified water.
# The effect on wrinkle reduction was evaluated by measuring a change in skin elasticity. The measurement of skin elasticity was performed with Coutometer SEM 474 (Courage+Khazaka, Cologne, Germany) under the conditions of constant temperature of 24˜26° C. and constant humidity of 38-40%. The evaluation criteria were as follows 0 indicating no improvement in skin elasticity, and 5 indicating improvement in skin elasticity.
# [6] = UV/veratric acid group, UV total 600 mJ/cm^2
structure (smiles),measurement,setting,value
"COc1ccc(C(=O)O)cc1OC [Veratric acid, 3,4-dimethoxybenzoic acid]",TGF-beta1 production,[1],excellently inhibited TGF-beta1 production
same,R-parameter value compared to the UV/control groups,[2],reduced
same,R1 value: Skin roughness,[2]; [6],0.462 ± 0.013
same,R2 value: Maximum roughness,[2]; [6],0.405 ± 0.011
same,R3 value: Average roughness,[2]; [6],0.219 ± 0.012
same,R4 value: Smoothness depth,[2]; [6],0.116 ± 0.010
same,R5 value: Arithmetic average roughness,[2]; [6],0.290 ± 0.013
same,collagenase production,collagenase (MMP-1),decreased collgenase production in human normal fibroblasts
same,proliferation of human hair follicle dermal papilla cells (O.D. as percentage of control),[3],increased the proliferation of human hair follicle dermal papilla cells in a concentration-dependent manner
same,collagen synthesis (PICP),[4],increased collagen synthesis
same,cell death of UV-induced keratinocyte (cell viability),Keratinocyte (HaCaT),prevented cell death
same,IGF-1 secretion,[5],increased the IGF-1 secretion of human hair follicle dermal pailla cells in a concentration-dependent manner
same,cell death of UV-induced fibroblasts (cell viability),fibroblast,prevented cell death
same,Skin elasticity,human skin; veratric acid 0.01 wt %,2.81
same,Skin elasticity,human skin; veratric acid 0.05 wt %,3.12
same,Skin elasticity,human skin; veratric acid 1 wt %,3.36
